For four molecules, IC50 results are on record in patent publication US20200261534A1, “NEW TREATMENTS OF MULTIPLE MYELOMA” (priority 2017, published 2020).

Read-outs that look alike come from different tables or passages of the source. Starred links: 1 amine or outer side, 2 acyl side, 3 side chain; linkers in the order of their positions; H or OH if unused. Positions of bridges follow the written chain, without caps; N, C: chain ends. Non-standard residues stand in square brackets, D forms with d. Residues, ends and D or L forms follow the SMILES beside them. No end group written: not given here. ξ: configuration not given here. ξαMeNle(6-ylidene) = CC(CCCC=[*:3])(N[*:1])C(=O)[*:2]; X1 = CC(CCCCCCC=[*:3])(N[*:1])C(=O)[*:2]

For orientation: IC50 means the concentration that inhibits the measured activity by half.

What all share (type): cell-based
The test system of test [1] is MM.1S, B Lymphoblast (multiple myeloma). Description: MTT viability assay, MM.1S. The method, then:
MM.1S, B Lymphoblast (multiple myeloma), ATCC: CRL-2974
(§1) Cell lines A549, MCF-7 and RAMOS were cultured in incubator under CO2 (6%) at 37° C. in DMEM high glucose (Dulbecco's Modified Eagle Solution, Gibco-BRL 31966-21) medium with 10% fetal bovine serum inactivated (FBS) (Gibco-BRL 10106-169). Cell lines HL-60 and MM.1S were cultured in incubator at 37° C. in RPMI-1640 (Sigma R8758) medium with 10% of fetal bovine serum inactivated (FBS) and 2 mM glutamine (Sigma G7513). Cell lines BJ were cultured in incubator under CO2 (6%) at 37° C. in Eagle's Minimum Essential Medium (Sigma, M-2279) with 10% fetal bovine serum inactivated (FBS) (Gibco-BRL 10106-169).
During the amplification step and the assays adherent cells were rinsed with DPBS (Dulbecco's Phosphate Buffered Saline, Sigma D1283) three times and afterward treated for 5 minutes with trypsin ([…]) (Gibco-BRL, 15400054) in solution of DPBS at 37° C., and, once detached, transferred in the culturing medium. No-adherent cells were centrifuged and transferred in the culturing medium. Cells were counted in a Neubauer chamber after labelling with Tripan-Blue.
Cells were seeded at a density of 10000 cells/well in 100 μl of medium in 96 well plates. After 24 h, the compounds to be tested were added to calculate the dose/response curve at the starting concentration of 100 μM with serial dilutions (1:1). Controls are the untreated cells. Each experiment was performed in triplicate.
(§2) Cells were incubated with the compounds at the indicated concentrations during 24-72 h in incubator under CO2 atmosphere at 37° C. Then, cell viability was measured by means of MTT (3-(4,5-dimethylthiazol-2-yl)-2,5-diphenyltetrazolium bromide) assay. Stock solution of MTT (475989 Calbiochem) was 5 mg/ml in PBS. 1×.10 μl/well of MTT solution were added and the plate was incubated for 3-4 hr. The medium was discarded and 100 μl of extracting buffer (PBS 1×, 15% SDS, 50% […] N,N-Dimethylformamide, pH 4.7) were added to each well. Plates were incubated for 16 h at room temperature under orbital shaking. Absorbance at 570 nm was finally measured. As negative control (experiment noise) 3 wells were treated with 20 μl/well of a solution of SDS 10% in H2O.
Data analysis was performed calculating the percentage of cell viability normalized vs. the values of negative control, which was considered equal to 100%. The dose/response curve was fitted through the sigmoidal equation dose-response (variable slope) and the IC50 values were calculated as follow:
Y=Bottom+(Top−Bottom)/(1+10^{[(LogIC50−X)*HillSlope]},
All cell lines were cultured in incubator at 37° C. in RPMI-1640 (Sigma R8758) medium with 10% of fetal bovine serum inactivated (FBS) and 2 mM glutamine (Sigma G7513). During the amplification step cells were centrifuged and transferred into the culturing medium. Cells were counted in a Neubauer chamber after labelling with Tripan-Blue.
as §2, with “peptidomimetic compound (S09)” for “compounds”
Cell lines A549 and MBA-MD231 were cultured in incubator under CO2 (6%) at 37° C. in DMEM high glucose (Dulbecco's Modified Eagle Solution, Gibco-BRL 31966-21) medium with 10% fetal bovine serum inactivated (FBS) (Gibco-BRL 10106-169). […]
(In general: Tetrazolium assays rely on reduction of a dye to a coloured formazan, in cell work by metabolically active cells.)

Test [2] deals with A549, epithelial (lung cancer). Description: MTT viability assay, A549. The method, then: A549, epithelial (lung cancer), ATCC: CCL-185
as §1
During the amplification step and the assays adherent cells were rinsed with DPBS (Dulbecco's Phosphate Buffered Saline, Sigma D1283) three times and afterward treated for 5 minutes with trypsin ([…]) (Gibco-BRL, 15400054) in solution of DPBS at 37° C., and, once detached, transferred in the culturing medium. No-adherent cells were centrifuged and transferred in the culturing medium. Cells were counted in a Neubauer chamber after labelling with Tripan-Blue. […]
as §2
Data analysis was performed calculating the percentage of cell viability normalized vs. the values of negative control, which was considered equal to 100%. The dose/response curve was fitted through the sigmoidal equation dose-response (variable slope) and the IC50 values were calculated as follow: […]

The test system of test [3] is RAMOS, B lymphocyte (Burkitt's Lymphoma). Description: MTT viability assay, RAMOS. How it is done: RAMOS, B lymphocyte (Burkitt's Lymphoma), ATCC: CRL-1596 […] During the amplification step and the assays adherent cells were rinsed with DPBS (Dulbecco's Phosphate Buffered Saline, Sigma D1283) three times and afterward treated for 5 minutes with trypsin ([…]) (Gibco-BRL, 15400054) in solution of DPBS at 37° C., and, once detached, transferred in the culturing medium. No-adherent cells were centrifuged and transferred in the culturing medium. Cells were counted in a Neubauer chamber after labelling with Tripan-Blue. […] Cells were seeded at a density of 10000 cells/well in 100 μl of medium in 96 well plates. […] Controls are the untreated cells. Each experiment was performed in triplicate. Cells were incubated with the compounds at the indicated concentrations during 24-72 h in incubator under CO2 atmosphere at 37° C. […] Stock solution of MTT (475989 Calbiochem) was 5 mg/ml in PBS. 1×.10 μl/well of MTT solution were added and the plate was incubated for 3-4 hr. […] Plates were incubated for 16 h at room temperature under orbital shaking. Absorbance at 570 nm was finally measured. […] The dose/response curve was fitted through the sigmoidal equation dose-response (variable slope) and the IC50 values were calculated as follow: Y=Bottom+(Top−Bottom)/(1+10^{[(LogIC50−X)*HillSlope]},

Turning to `CC[C@H](C)[C@H](NC(=O)[C@@H](NC(=O)[C@@H](NC(=O)[C@H](CCCCN)NC(=O)[C@@H]1CCCN1C(=O)[C@H](C)N)C(C)C)C(C)C)C(=O)NC1(C)CCCCCCC=CCCCC(C)(C(=O)N[C@@H](CC(C)C)C(=O)N[C@@H](CO)C(=O)O)NC(=O)[C@H](Cc2ccc(O)cc2)NC(=O)[C@H](C)NC(=O)[C@H]([C@@H](C)O)NC(=O)[C@H](C)NC(=O)[C@H](CCCCN)NC(=O)[C@H](CCCCN)NC1=O` (some centres unmarked) [IDP-S17, APKVVIXKKATAYXLS] (H-APKVVI[X1]KKATAY[ξαMeNle(6-ylidene)]LS-OH; staple 7-14; N-terminus and C-terminus assumed), the IC50 in test [1], in test [2] and in test [3] was greater than 100 µM each time.
With “RQIKIWFQNRRMKWKKNELKRAFAALRDQI [Int-HI-S6A-F8, reference compound]”, the IC50 in test [1], in test [2] and in test [3] was greater than 100 µM in each case.
Consider `CC[C@H](C)[C@H](NC(=O)[C@H](Cc1ccc(O)cc1)NC(=O)[C@H](C)NC(=O)C1(C)CCCC=CCCCCCCC(C)(NC(=O)[C@H](CCCCN)NC(=O)[C@@H]2CCCN2C(=O)[C@H](C)N)C(=O)N[C@@H](C(C)C)C(=O)N[C@@H]([C@@H](C)CC)C(=O)N[C@@H](CC(C)C)C(=O)N[C@@H](CCCCN)C(=O)N[C@@H](CCCCN)C(=O)N[C@@H](C)C(=O)N1)C(=O)N[C@@H](CC(C)C)C(=O)N[C@@H](CO)C(=O)O` (some centres unmarked) [S09, APKXVILKKAXAYILS—OH] (H-APK[X1]VILKKA[ξαMeNle(6-ylidene)]AYILS-OH; staple 4-11; N-terminus assumed), for which the half-inhibitory concentration (IC50) was 7.5 µM in test [1] (MM1S, MTT, 24-72 h, Table 7, read-out: IC50 values in μM for S09); roughly 6.2 µM in test [1] (MM.1S, MTT, incubation 24-72 h, Table 3, read-out: IC50 values); roughly 6.2 µM in test [1] (MM.1S, same protocol as Example 2, Table 6, read-out: Compound (IC50)); 6.3 ± 0.5 µM in test [2] (A549, MTT, 24-72 h, Table 12, read-out: IC50 values); 9.4 ± 4.1 µM in test [2] (A549, MTT, incubation 24-72 h, Table 3, read-out: IC50 values); 9.4 ± 4.1 µM in test [2] (A549, same protocol as Example 2, Table 6, read-out: Compound (IC50)). The IC50 is roughly 28 µM in test [3] (Ramos, MTT, incubation 24-72 h, Table 3, read-out: IC50 values) and roughly 28 µM in test [3] (Ramos, same protocol as Example 2, Table 6, read-out: Compound (IC50)).
In the case of `CC[C@H](C)[C@H](NC(=O)C1(C)CCCC=CCCCCCCC(C)(NC(=O)[C@@H](NC(=O)[C@@H](NC(=O)[C@H](CCCCN)NC(=O)[C@@H]2CCCN2C(=O)[C@H](C)N)C(C)C)C(C)C)C(=O)N[C@@H](CC(C)C)C(=O)N[C@@H](CCCCN)C(=O)N[C@@H](CCCCN)C(=O)N[C@@H](C)C(=O)N[C@@H]([C@@H](C)O)C(=O)N[C@@H](C)C(=O)N1)C(=O)N[C@@H](CC(C)C)C(=O)N[C@@H](CO)C(=O)O` (some centres unmarked) [IDP-S22, APKVVXLKKATAXILS] (H-APKVV[X1]LKKATA[ξαMeNle(6-ylidene)]ILS-OH; staple 6-13; N-terminus and C-terminus assumed), the IC50 in test [1], in test [2] and in test [3] was greater than 100 µM throughout.
